Measured values as given in PMC5554167, “Intestinal transepithelial permeability of oxytocin into the blood is dependent on the receptor for advanced glycation end products in mice” (Scientific Reports, 2017).
Read-outs that look alike come from different tables or passages of the source.

What was measured:
[1] = Plasma AVP after oral delivery of AVP in pups (EIA); type: in vivo, mice; details: for AVP recovery: rough estimate
Method: To study the specificity of RAGE-dependent transport of OT, we investigated the intestinal absorption of another nonapeptide, arginine vasopressin (AVP[46]) by oral delivery and in the isolated intestines. Transport during the suckling period of development (PND3 and PND5) was confirmed by comparing plasma AVP levels at 10 min after oral delivery of 10 μL of synthetic AVP solution (100 μM; 1 μg/pup) or the same volume of PBS to pups after fasting for 30 min. Plasma AVP concentrations were markedly higher at both PND3 and PND5 in pups administered AVP than in those administered oral saline (Fig. 6a). Two-way ANOVA was used to analyse the interaction between Treatment (PBS/AVP) × Age, F 1,18 = 3.14, P = 0.0933; the Treatment (PBS/AVP) effect, F 1,18 = 5.21, P < 0.05; and the Age effect, F 1,18 = 91.26, P < 0.0001. Bonferroni’s post hoc tests were used to determine differences in AVP levels between PND3 and PND5, *P < 0.05. It is worth noting that the pup size denominator problem was also present in the above experiment. However, if we roughly estimate AVP recovery, it is approximately 4% at PND3 (22 ng was recovered from the effective dose of 555 ng (1 μg/1.8 g pup)) and also 4% at PND5 (16 ng was recovered from the effective dose of 400 ng (1 μg/2.5 g pup)).
Approximately 30 μL of blood was collected from the facial vein of neonates after quick cold anesthesia on ice (Fig. 1a; ref. [67], [68]). The similar blood volume was obtained from the heart after opening of the chest of pups (Figs 1b–d, 3a,b, 6a and 7), from the carotid artery in the pup neck (Fig. 2a) and the tail vein of adults each time (Fig. 6) under ketamine anaesthesia ([…] intraperitoneally).
OT or AVP immunoreactivity levels were quantified by using OT and AVP enzyme immunoassay (EIA) kits (Enzo Life Sciences, NY, USA), respectively. We performed assays in tissue preparations without pre-treatment[66], [70] to compare different tissue samples, though the fractioned sample was recommended, [72]. Blood samples collected as mentioned above were stored at −80 C. The blood samples were thawed and five μL of them were diluted 1:20 in assay buffer on ice and assayed.

[2] = LC-MS/MS of [Ile13C,15N]OT in plasma after oral administration to pups; type: in vivo, mice
Method: Plasma samples were collected from the heart of anesthetized wild-type PND3 pups at 10 min after oral administration of [Ile ^13C, ^15N]OT (100 µM × 10 μL). The samples were fractionated with 1 N salt, and subjected to LC-MS/MS after sample preparation by the deproteination procedure. Figure 7 illustrates two representative traces of multiple reaction monitoring (MRM) chromatograms ([M + H^+] (m/z 1014.6) → b6 ion (m/z 730.6) for the administered [Ile ^13C, ^15N]OT; [M + H^+] (m/z 1021.2) → b6 ion (m/z 723.2) for the internal STD [Pro&Leu^13C, ^15N]OT)[47]. The left MRM chromatogram indicates the presence of full-length stably labelled [Ile ^13C, ^15N]OT in the blood owing to intestinal absorption after oral administration in suckling (PND3) pups (n = 4). The right MRM chromatogram of Fig. 7 corresponds to the internal STD [Pro&Leu^13C, ^15N]OT spiked into the plasma.
Standard (STD) samples of [Ile^13C, ^15N]OT (100 ng/mL) and [Pro&Leu^13C, ^15N]OT (100 ng/mL) were prepared by dilution of stock solutions with 0.1% TFA as necessary. […]
An AB Sciex 4000 QTRAP (CA, USA) was used. The prepared 25 μL sample was injected and separated by a ZORBAX 300SB-C8 column (2.1 × 150 mm, 5 μm; CA, USA) and then detected using the multiple reaction monitoring (MRM) mode of the MS/MS system. […]

[3] = adult humans, cited from earlier work
Method: An estimation of bioavailability was performed in adult mice. Fifty ng/mL of OT was detected after oral delivery of 10 μg of OT. Young adults weigh approximately 30 g and have 2.3 mL blood, so approximately 1% of oral OT can be absorbed. We have previously identified OT in the mammary tissues of mouse dams and in the milk curd inside the oesophagi of pups[13]. To determine the OT concentrations in milk, we needed to collect milk from the mothers. One common method is to collect milk after stimulating secretion with external OT. Because such milk contains external OT, we were unable to calculat ...

arginine vasopressin [AVP]
AVP recovered ([1]; wild-type pups PND3, 10 min after oral AVP 1 μg/pup, effective dose 555 ng): 22 ng | AVP recovery ([1]; wild-type pups PND3, 10 min after oral AVP 1 μg/pup, effective dose 555 ng (1 μg/1.8 g pup)): approximately 4% | AVP recovered ([1]; wild-type pups PND5, 10 min after oral AVP 1 μg/pup, effective dose 400 ng): 16 ng | AVP recovery ([1]; wild-type pups PND5, 10 min after oral AVP 1 μg/pup, effective dose 400 ng (1 μg/2.5 g pup)): approximately 4%

CC[C@H](C)[C@@H]1NC(=O)[C@H](Cc2ccc(O)cc2)NC(=O)[C@@H](N)CSSC[C@@H](C(=O)N2CCC[C@H]2C(=O)N[C@@H](CC(C)C)C(=O)NCC(N)=O)NC(=O)[C@H](CC(N)=O)NC(=O)[C@H](CCC(N)=O)NC1=O [[Ile ^13C, ^15N]OT, isoleucine [Ile ^13C, ^15N] oxytocin]
level at 10 min ([2]; mouse, in vivo, 1000 ng, wild-type PND3 pups 10 min after oral 100 µM × 10 μL, LC-MS/MS, corrected for dilution x10, n = 4, read-out: Estimated mean concentration in the blood): 346 ± 96 ng/mL | Concentration calculated from ratio of peak areas (10-fold diluted sample) ([2]; wild-type PND3 pup plasma 10 min after oral 100 µM × 10 μL, LC-MS/MS MRM, sample of Fig. 7, before correction for dilution): 27.9 ng/mL

1-deamino-8-arginine vasopressin
Bioavailability ([3]; intranasal): 3.4% | Bioavailability ([3]; intrarectal): 0% | Bioavailability ([3]; oral): 0.1% | Bioavailability ([3]; sublingual): 0%

CC[C@H](C)[C@@H]1NC(=O)[C@H](Cc2ccc(O)cc2)NC(=O)[C@@H](N)CSSC[C@@H](C(=O)N2CCC[C@H]2C(=O)N[C@@H](CC(C)C)C(=O)NCC(N)=O)NC(=O)[C@H](CC(N)=O)NC(=O)[C@H](CCC(N)=O)NC1=O
OT detected in plasma after oral delivery: 50 ng/mL
